Experiment [1] concerns human multiple myeloma cell line, OPM-2. Briefly: Cell viability assay (OPM-2 10 FBS), CellTiter-Glo. It counts as cell-based. In a few lines:
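Cells were seeded at 3000 cells/well in RPMI 1640 with 10% FBS and exposed to serially diluted compounds for 16 h at 37 °C, 5% CO2.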

Experiment [2] deals with recombinant human Mcl-1 (residues 171-327) / Bim interaction (Homo sapiens (Human), UniProt Q07820). The experiment is described as follows: biochemical. It counts as binding. Particulars: read-out: Mcl-1 HTRF IC50.
recombinant human Mcl-1 (residues 171-327) / Bim interaction, sequence (Q07820 171-327): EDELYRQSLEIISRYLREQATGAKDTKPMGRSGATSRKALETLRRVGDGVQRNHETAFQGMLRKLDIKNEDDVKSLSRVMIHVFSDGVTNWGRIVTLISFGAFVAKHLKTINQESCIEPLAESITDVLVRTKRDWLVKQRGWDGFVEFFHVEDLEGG
[3] abbreviates: read-out: OPM-2 10% FBS IC50 IP, OPM-2 cells, 10% FBS, 16 h, CellTiter-Glo.
[4] abbreviates: TR-FRET, Mcl-1(171-327) / biotin-Bim (51-76).
Setting [5] is: Homo sapiens, OPM-2, 16 h, read-out: OPM-2 10% FBS IC50 IP, OPM-2 cells, 10% FBS, 16 h, CellTiter-Glo.

Like-named read-outs stand apart in the source and are kept apart here.

`COC[C@]1(OC)CCC[C@H](C)[C@@H](C)S(=O)(=O)NC(=O)c2ccc3c(c2)N(C[C@@H]2CC[C@H]21)C[C@@]1(CCCc2cc(Cl)ccc21)CO3` [Example 100225, (1S,3′R,6′R,7′S,11′S,12′R)-6-chloro-7′-methoxy-7′-(methoxymethyl)-11′,12′-dimethyl-3,4-dihydro-2H,15′H-spiro[naphthalene-1,22′-[20]oxa[13]thia[1,14]diazatetracyclo [14.7.2.0~3,6~.0~19,24~]pentacosa[16,18,24]trien]-15′-one 13′,13′-dioxide]: the figures for the IC50 in experiment [1] (setting [3]) and in experiment [2] (setting [4]) were 882 nM and 0.639 nM, respectively.
Taken in the same sequence, the figures for `C[C@@H]1[C@@H](C)C/C=C/[C@@](O)(C(F)F)[C@@H]2CC[C@H]2CN2C[C@@]3(CCCc4cc(Cl)ccc43)COc3ccc(cc32)C(=O)NS1(=O)=O` [Example 100069, (1S,3′R,6′R,7′S,8′E,11′S,12′R)-6-chloro-7′-(difluoromethyl)-7′-hydroxy-11′,12′-dimethyl-3,4-dihydro-2H,15′H-spiro[naphthalene-1,22′-[20]oxa[13]thia[1,14]diazatetracyclo [14.7.2.0~3,6~.0~19,24~]pentacosa[8,16,18,24]tetraen]-15′-one 13′,13′-dioxide] were 250 nM and 0.457 nM.
For the compound `CO[C@@]1(CC(=O)N(C)C2CCC2)/C=C/C[C@H](C)[C@@H](C)S(=O)(=O)NC(=O)c2ccc3c(c2)N(C[C@@H]2CC[C@H]21)C[C@@]1(CCCc2cc(Cl)ccc21)CO3` [Example 100450, 2-((1S,3′R,6′R,7′S,8′E,11′S,12′R)-6-chloro-7′-methoxy-11′,12′-dimethyl-13′,13′-dioxido-15′-oxo-3,4-dihydro-2H-spiro[naphthalene-1,22′-[20]oxa[13]thia[1,14]diazatetracyclo [14.7.2.0~3,6~.0~19,24~]pentacosa[8,16,18,24]tetraen]-7′-yl)-N-cyclobutyl-N-methylacetamide], the IC50 in experiment [1] (setting [5]) worked out at 1910 nM; in experiment [2] (setting [4]), 0.336 nM.
Consider `C[C@@H]1[C@@H](C)CCC[C@@](O)([C@@H]2OCCN(C)C2=O)[C@@H]2CC[C@H]2CN2C[C@@]3(CCCc4cc(Cl)ccc43)COc3ccc(cc32)C(=O)NS1(=O)=O` [Example 100205, (1S,3′R,6′R,7′S,11′S,12′R)-6-chloro-7′-hydroxy-11′,12′-dimethyl-7′-((2S)-4-methyl-3-oxo-2-morpholinyl)-3,4-dihydro-2H,15′H-spiro[naphthalene-1,22′-[20]oxa[13]thia[1,14]diazatetracyclo [14.7.2.0~3,6~.0~19,24~]pentacosa[16,18,24]trien]-15′-one 13′,13′-dioxide], for which the figures for the IC50 in experiment [1] (setting [5]) and in experiment [2] (setting [4]) were 68 nM and 0.206 nM, respectively.
Regarding `CC(=O)N[C@@]1(C#N)CCC[C@H](C)[C@@H](C)S(=O)(=O)NC(=O)c2ccc3c(c2)N(C[C@@H]2CC[C@H]21)C[C@@]1(CCCc2cc(Cl)ccc21)CO3` [Example 100263, N-((1S,3′R,6′R,7′S,11′S,12′R)-6-chloro-7′-cyano-11′,12′-dimethyl-13′,13′-dioxido-15′-oxo-3,4-dihydro-2H-spiro[naphthalene-1,22′-[20]oxa[13]thia[1,14]diazatetracyclo [14.7.2.0~3,6~.0~19,24~]pentacosa[16,18,24]trien]-7′-yl)acetamide], the results for the IC50 in experiment [1] (setting [5]) and in experiment [2] (setting [4]) were 3390 nM and 1.83 nM, respectively.
For the compound `C[C@@H]1[C@@H](C)C/C=C/[C@@](O)(CC(=O)N2CCN3CCOC[C@H]3C2)[C@@H]2CC[C@H]2CN2C[C@@]3(CCCc4cc(Cl)ccc43)COc3ccc(cc32)C(=O)NS1(=O)=O` [Example 100311, (1S,3′R,6′R,7′S,8′E,11′S,12′R)-6-chloro-7′-(2-((9aR)-hexahydropyrazino[2,1-c][1,4]oxazin-8(1H)-yl)-2-oxoethyl)-7′-hydroxy-11′,12′-dimethyl-3,4-dihydro-2H,15′H-spiro[naphthalene-1,22′-[20]oxa[13]thia[1,14]diazatetracyclo [14.7.2.0~3,6~.0~19,24~]pentacosa[8,16,18,24]tetraen]-15′-one 13′,13′-dioxide], the IC50 in experiment [1] (setting [5]) was 1190 nM; in experiment [2] (setting [4]), 1.03 nM.
Consider `C[C@@H]1[C@@H](C)C/C=C/[C@@](C)(OCc2cc(F)cc(F)c2)[C@@H]2CC[C@H]2CN2C[C@@]3(CCCc4cc(Cl)ccc43)COc3ccc(cc32)C(=O)NS1(=O)=O` (single isomer, unassigned) [Example 100474], for which the IC50 in experiment [1] (setting [5]) stood at 387 nM; in experiment [2] (setting [4]), 0.405 nM.
Taken in the same sequence, the figures for `CO[C@@]1(C#CCO)/C=C/C[C@H](C)[C@@H](C)S(=O)(=O)NC(=O)c2ccc3c(c2)N(C[C@@H]2CC[C@H]21)C[C@@]1(CCCc2cc(Cl)ccc21)CO3` [Example 100344, (1S,3′R,6′R,7′S,8′E,11′S,12′R)-6-chloro-7′-(3-hydroxy-1-propyn-1-yl)-7′-methoxy-11′,12′-dimethyl-3,4-dihydro-2H,15′H-spiro[naphthalene-1,22′-[20]oxa[13]thia[1,14]diazatetracyclo [14.7.2.0~3,6~.0~19,24~]pentacosa[8,16,18,24]tetraen]-15′-one 13′,13′-dioxide] were 290 nM and 0.309 nM.
In the case of `COCC[C@@H]1[C@@H](C)C/C=C/[C@](CN2CCN(C(C)C)CC2)(OC)[C@@H]2CC[C@H]2CN2C[C@@]3(CCCc4cc(Cl)ccc43)COc3ccc(nc32)C(=O)NS1(=O)=O` [Example 24, (1S,3′R,6′R,7′S,8′E,11′S,12′R)-6-chloro-7′-methoxy-12′-(2-methoxyethyl)-11′-methyl-7′-((4-(1-methylethyl)-1-piperazinyl)methyl)-3,4-dihydro-2H,15′H-spiro[naphthalene-1,22′-[20]oxa[13]thia[1,14,25]triazatetracyclo [14.7.2.0~3,6~.0~19,24~]pentacosa[8,16,18,24]tetraen]-15′-one 13′,13′-dioxide], the IC50 was determined as 35 nM in experiment [1] (Homo sapiens, OPM-2, 16 h, read-out: OPM-2 10% FBS IC50 IP, OPM-2 cells, 10% FBS, 16 h incubation) and 0.086 nM in experiment [2] (0.1 nM Mcl-1(171-327), 0.05 nM biotin-Bim (51-76)).
`C[C@@H]1[C@@H](C)CCC[C@@](O)(CC(=O)N2CCCC2)[C@@H]2CC[C@H]2CN2C[C@@]3(CCCc4cc(Cl)ccc43)COc3ccc(cc32)C(=O)NS1(=O)=O` [Example 100108, (1S,3′R,6′R,7′R,11′S,12′R)-6-chloro-7′-hydroxy-11′,12′-dimethyl-7′-(2-oxo-2-(1-pyrrolidinyl)ethyl)-3,4-dihydro-2H,15′H-spiro[naphthalene-1,22′-[20]oxa[13]thia[1,14]diazatetracyclo [14.7.2.0~3,6~.0~19,24~]pentacosa[16,18,24]trien]-15′-one 13′,13′-dioxide]: the IC50 in experiment [1] (setting [3]) is 358 nM; in experiment [2] (setting [4]) it was 0.436 nM.
As to `C[C@@H]1[C@@H](C)C/C=C/[C@@](O)(C(F)F)[C@@H]2CC[C@H]2CN2C[C@@]3(CCCc4cc(Cl)ccc43)COc3ccc(cc32)C(=O)NS1(=O)=O` [Example 100070, (1S,3′R,6′R,7′S,8′E,11′S,12′R)-6-chloro-7′-(difluoromethyl)-7′-hydroxy-11′,12′-dimethyl-3,4-dihydro-2H,15′H-spiro[naphthalene-1,22′-[20]oxa[13]thia[1,14]diazatetracyclo [14.7.2.0~3,6~.0~19,24~]pentacosa[8,16,18,24]tetraen]-15′-one 13′,13′-dioxide], the IC50 in experiment [1] (setting [3]) came to 1070 nM; in experiment [2] (setting [4]), 4.85 nM.
